Experimental data taken from patent US20250215030A1, “STAT MODULATORS AND USES THEREOF” (Recludix Pharma, Inc., priority 2022, published 2025).
Blank lines part the entries; values can stand above or below the compound they belong to.

Experiments:
[1] = biological target: T1, Recombinant STAT3 protein (STAT3(G127-I722)) (Homo sapiens, UniProt P40763); assay: STAT3 Fluorescence Polarization (FP) Assay; assay type: binding; settings: STAT3(G127-I722) 25 nM, probe 5-FAM-GpYLPQTV-NH2 2 nM, 45-minute incubation
T1 construct: STAT3(G127-I722)
Summary of the method: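 Serially diluted compounds (1% DMSO) were mixed with 2 nM fluorescent phosphotyrosine peptide and 25 nM STAT3 construct G127-I722, pH 7.4, incubated 45 min at room temperature. IC50 values from fitted polarization curves are reported as categories A (≤100 nM), B, C, D (>10 μM).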

[2] = biological target: T2, Recombinant STAT6 protein (STAT6(W123-T658)) (Homo sapiens, UniProt P42226); assay: STAT6 Fluorescence Polarization (FP) Assay; assay type: binding; settings: STAT6(W123-T658) 250 nM, probe 5-FAM-ApYKPFQDLI-NH2 2 nM, 45-minute incubation
T2 construct: STAT6(W123-T658)
T2 sequence (P42226 123-658): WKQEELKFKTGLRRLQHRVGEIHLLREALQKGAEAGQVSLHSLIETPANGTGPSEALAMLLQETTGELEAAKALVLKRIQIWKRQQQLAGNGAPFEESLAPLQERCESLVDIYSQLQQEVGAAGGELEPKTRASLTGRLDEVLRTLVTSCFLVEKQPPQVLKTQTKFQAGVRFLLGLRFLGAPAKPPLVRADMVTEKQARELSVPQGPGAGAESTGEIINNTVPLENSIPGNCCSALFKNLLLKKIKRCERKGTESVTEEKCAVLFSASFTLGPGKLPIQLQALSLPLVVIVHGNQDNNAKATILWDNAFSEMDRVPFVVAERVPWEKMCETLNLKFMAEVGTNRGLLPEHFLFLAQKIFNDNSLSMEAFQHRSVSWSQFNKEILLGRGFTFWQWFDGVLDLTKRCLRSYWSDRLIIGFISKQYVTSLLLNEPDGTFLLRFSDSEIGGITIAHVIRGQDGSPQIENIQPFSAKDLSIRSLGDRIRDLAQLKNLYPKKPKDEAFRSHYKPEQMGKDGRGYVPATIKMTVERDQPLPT
Summary of the method: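 Competitive displacement of a fluorescent phosphotyrosine peptide (2 nM) from recombinant STAT6 W123-T658 (250 nM), 45 min at room temperature in 10 mM HEPES pH 7.4, 50 mM NaCl, 2 mM DTT. mP fitted against log compound for IC50, grouped A (≤300 nM) to D (>30 μM).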

T1 sequence (P40763 127-722, species assumed): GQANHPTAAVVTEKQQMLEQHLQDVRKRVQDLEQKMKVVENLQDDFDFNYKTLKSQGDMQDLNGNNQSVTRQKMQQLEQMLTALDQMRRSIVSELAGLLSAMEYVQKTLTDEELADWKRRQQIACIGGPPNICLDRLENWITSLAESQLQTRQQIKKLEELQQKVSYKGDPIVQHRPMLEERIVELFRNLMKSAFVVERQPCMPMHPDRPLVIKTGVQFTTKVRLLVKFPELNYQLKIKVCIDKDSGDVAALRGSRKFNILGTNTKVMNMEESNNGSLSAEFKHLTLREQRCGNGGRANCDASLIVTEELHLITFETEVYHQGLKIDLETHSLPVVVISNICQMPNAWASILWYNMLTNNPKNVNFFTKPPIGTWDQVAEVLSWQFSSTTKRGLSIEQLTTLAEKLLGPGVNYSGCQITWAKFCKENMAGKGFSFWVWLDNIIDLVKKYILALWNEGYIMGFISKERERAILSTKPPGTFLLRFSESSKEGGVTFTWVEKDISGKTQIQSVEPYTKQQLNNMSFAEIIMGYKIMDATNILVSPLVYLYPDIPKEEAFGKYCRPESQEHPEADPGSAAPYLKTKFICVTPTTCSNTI

SMILES: O=C(N[C@H]1C[C@@H]2C[C@@H]2C[C@H]2CC[C@@H](C(=O)N3CC(Cc4ccc(F)cc4F)C3)N2C1=O)c1cc2cc(CP(=O)(O)O)ccc2s1 [Example 377, ((2-(((3S,6S,7aS,8aR,9aR)-3-(3-(2,4-difluorobenzyl)azetidine-1-carbonyl)-5-oxodecahydro-1H-cyclopropa[d]pyrrolo[1,2-a]azocin-6-yl)carbamoyl)benzo[b]thiophen-5-yl)methyl)phosphonic acid]
IC50 [1]: 0.1 to 1 µM | IC50 [2]: 3 to 30 µM

SMILES: O=C(N[C@H]1C[C@@H]2C[C@@H]2C[C@H]2CC[C@@H](C(=O)N3CC(Cc4cc(F)ccc4F)C3)N2C1=O)c1cc2cc(CP(=O)(O)O)ccc2s1 [Example 378, ((2-(((3S,6S,7aS,8aR,9aR)-3-(3-(2,5-difluorobenzyl)azetidine-1-carbonyl)-5-oxodecahydro-1H-cyclopropa[d]pyrrolo[1,2-a]azocin-6-yl)carbamoyl)benzo[b]thiophen-5-yl)methyl)phosphonic acid]
IC50 [1]: 1 to 10 µM | IC50 [2]: 3 to 30 µM

SMILES: O=C(N[C@H]1C[C@@H]2C[C@@H]2C[C@H]2CC[C@@H](C(=O)N3CCOc4cccnc43)N2C1=O)c1cc2cc(C(F)P(=O)(O)O)ccc2s1 (stereo partly drawn) [Example 385, ((2-(((3S,6S,7aS,8aR,9aR)-3-(3,4-dihydro-2H-pyrido[3,2-b][1,4]oxazine-4-carbonyl)-5-oxodecahydro-1H-cyclopropa[d]pyrrolo[1,2-a]azocin-6-yl)carbamoyl)benzo[b]thiophen-5-yl)fluoromethyl)phosphonic acid]
IC50 [1]: 1 to 10 µM | IC50 [2]: 3 to 30 µM

SMILES: O=C(N[C@H]1C[C@@H]2C[C@@H]2C[C@H]2CC[C@@H](C(=O)N3CCOc4ncccc43)N2C1=O)c1cc2cc(C(F)P(=O)(O)O)ccc2s1 (stereo partly drawn) [Example 386, ((2-(((3S,6S,7aS,8aR,9aR)-3-(2,3-dihydro-1H-pyrido[2,3-b][1,4]oxazine-1-carbonyl)-5-oxodecahydro-1H-cyclopropa[d]pyrrolo[1,2-a]azocin-6-yl)carbamoyl)benzo[b]thiophen-5-yl)fluoromethyl)phosphonic acid]
IC50 [1]: 1 to 10 µM | IC50 [2]: 0.3 to 3 µM

SMILES: O=C(N[C@H]1C[C@@H]2C[C@@H]2C[C@H]2CC[C@@H](C(=O)N3CCC34CCCC4)N2C1=O)c1cc2cc(C(F)P(=O)(O)O)ccc2s1 (stereo partly drawn) [Example 389, (fluoro(2-(((3S,6S,7aS,8aR,9aR)-5-oxo-3-(1-azaspiro[3.4]octane-1-carbonyl)decahydro-1H-cyclopropa[d]pyrrolo[1,2-a]azocin-6-yl)carbamoyl)benzo[b]thiophen-5-yl)methyl)phosphonic acid]
IC50 [1]: 1 to 10 µM | IC50 [2]: 3 to 30 µM

SMILES: O=C(N[C@H]1C[C@@H]2C[C@@H]2C[C@H]2CC[C@@H](C(=O)N3CC(c4ccccc4)C3)N2C1=O)c1cc2cc(C(F)P(=O)(O)O)ccc2s1 (stereo partly drawn) [Example 390, (fluoro(2-(((3S,6S,7aS,8aR,9aR)-5-oxo-3-(3-phenylazetidine-1-carbonyl)decahydro-1H-cyclopropa[d]pyrrolo[1,2-a]azocin-6-yl)carbamoyl)benzo[b]thiophen-5-yl)methyl)phosphonic acid]
IC50 [1]: 0.1 to 1 µM | IC50 [2]: 3 to 30 µM

SMILES: CN(C)c1ccncc1C1CN(C(=O)[C@@H]2CC[C@@H]3C[C@@H]4C[C@@H]4C[C@H](NC(=O)c4cc5cc(CP(=O)(O)O)ccc5s4)C(=O)N32)C1 [Example 393, ((2-(((3S,6S,7aR,8aS,9aR)-3-(3-(4-(dimethylamino)pyridin-3-yl)azetidine-1-carbonyl)-5-oxodecahydro-1H-cyclopropa[d]pyrrolo[1,2-a]azocin-6-yl)carbamoyl)benzo[b]thiophen-5-yl)methyl)phosphonic acid]
IC50 [1]: < 0.1 µM | IC50 [2]: > 30 µM

SMILES: CCOc1ccncc1C1CN(C(=O)[C@@H]2CC[C@@H]3C[C@H]4C[C@H]4C[C@H](NC(=O)c4cc5cc([C@@H](F)P(=O)(O)O)ccc5s4)C(=O)N32)C1 [Example 420, ((S)-(2-(((3S,6S,7aS,8aR,9aR)-3-(3-(4-ethoxypyridin-3-yl)azetidine-1-carbonyl)-5-oxodecahydro-1H-cyclopropa[d]pyrrolo[1,2-a]azocin-6-yl)carbamoyl)benzo[b]thiophen-5-yl)fluoromethyl)phosphonic acid]
IC50 [1]: < 0.1 µM | IC50 [2]: 3 to 30 µM

Second part, the compound after the results:

IC50 [1]: 1 to 10 µM | IC50 [2]: 3 to 30 µM
SMILES: Cn1cc(CC2CN(C(=O)[C@@H]3CC[C@@H]4C[C@H]5C[C@H]5C[C@H](NC(=O)c5cc6cc(CP(=O)(O)O)ccc6s5)C(=O)N43)C2)cn1 [Example 379, ((2-(((3S,6S,7aS,8aR,9aR)-3-(3-((1-methyl-1H-pyrazol-4-yl)methyl)azetidine-1-carbonyl)-5-oxodecahydro-1H-cyclopropa[d]pyrrolo[1,2-a]azocin-6-yl)carbamoyl)benzo[b]thiophen-5-yl)methyl)phosphonic acid]

IC50 [1]: 0.1 to 1 µM | IC50 [2]: 3 to 30 µM
SMILES: O=C(N[C@H]1C[C@@H]2C[C@@H]2C[C@H]2CC[C@@H](C(=O)N3CC(Cc4cccnc4)C3)N2C1=O)c1cc2cc(CP(=O)(O)O)ccc2s1 [Example 380, ((2-(((3S,6S,7aS,8aR,9aR)-5-oxo-3-(3-(pyridin-3-ylmethyl)azetidine-1-carbonyl)decahydro-1H-cyclopropa[d]pyrrolo[1,2-a]azocin-6-yl)carbamoyl)benzo[b]thiophen-5-yl)methyl)phosphonic acid]

IC50 [1]: 1 to 10 µM | IC50 [2]: 0.3 to 3 µM
SMILES: Cc1ccc2c(c1)OCCN2C(=O)[C@@H]1CC[C@@H]2C[C@H]3C[C@H]3C[C@H](NC(=O)c3cc4cc(C(F)P(=O)(O)O)ccc4s3)C(=O)N21 (stereo partly drawn) [Example 383, (fluoro(2-(((3S,6S,7aS,8aR,9aR)-3-(7-methyl-3,4-dihydro-2H-benzo[b][1,4]oxazine-4-carbonyl)-5-oxodecahydro-1H-cyclopropa[d]pyrrolo[1,2-a]azocin-6-yl)carbamoyl)benzo[b]thiophen-5-yl)methyl)phosphonic acid]

IC50 [1]: 1 to 10 µM | IC50 [2]: 3 to 30 µM
SMILES: O=C(N[C@H]1C[C@@H]2C[C@@H]2C[C@H]2CC[C@@H](C(=O)N3CCOc4cc(F)ccc43)N2C1=O)c1cc2cc(C(F)P(=O)(O)O)ccc2s1 (stereo partly drawn) [Example 384, (fluoro(2-(((3S,6S,7aS,8aR,9aR)-3-(7-fluoro-3,4-dihydro-2H-benzo[b][1,4]oxazine-4-carbonyl)-5-oxodecahydro-1H-cyclopropa[d]pyrrolo[1,2-a]azocin-6-yl)carbamoyl)benzo[b]thiophen-5-yl)methyl)phosphonic acid]

IC50 [1]: 1 to 10 µM | IC50 [2]: 3 to 30 µM
SMILES: O=C(N[C@H]1C[C@@H]2C[C@@H]2C[C@H]2CC[C@@H](C(=O)N3CCN(C4COC4)c4ccccc43)N2C1=O)c1cc2cc(C(F)P(=O)(O)O)ccc2s1 (stereo partly drawn) [Example 387, (fluoro(2-(((3S,6S,7aS,8aR,9aR)-3-(4-(oxetan-3-yl)-1,2,3,4-tetrahydroquinoxaline-1-carbonyl)-5-oxodecahydro-1H-cyclopropa[d]pyrrolo[1,2-a]azocin-6-yl)carbamoyl)benzo[b]thiophen-5-yl)methyl)phosphonic acid]

IC50 [1]: 1 to 10 µM | IC50 [2]: 3 to 30 µM
SMILES: O=C(N[C@H]1C[C@@H]2C[C@@H]2C[C@H]2CC[C@@H](C(=O)N3CCC34CCCCC4)N2C1=O)c1cc2cc(C(F)P(=O)(O)O)ccc2s1 (stereo partly drawn) [Example 388, (fluoro(2-(((3S,6S,7aS,8aR,9aR)-5-oxo-3-(1-azaspiro[3.5]nonane-1-carbonyl)decahydro-1H-cyclopropa[d]pyrrolo[1,2-a]azocin-6-yl)carbamoyl)benzo[b]thiophen-5-yl)methyl)phosphonic acid]

IC50 [1]: 0.1 to 1 µM | IC50 [2]: 3 to 30 µM
SMILES: O=C(N[C@H]1C[C@@H]2C[C@@H]2C[C@H]2CC[C@@H](C(=O)N3CC(c4nocc4Br)C3)N2C1=O)c1cc2cc(C(F)P(=O)(O)O)ccc2s1 (stereo partly drawn) [Example 400, ((2-(((3S,6S,7aS,8aR,9aR)-3-(3-(4-bromoisoxazol-3-yl)azetidine-1-carbonyl)-5-oxodecahydro-1H-cyclopropa[d]pyrrolo[1,2-a]azocin-6-yl)carbamoyl)benzo[b]thiophen-5-yl)fluoromethyl)phosphonic acid]

IC50 [1]: < 0.1 µM | IC50 [2]: 0.3 to 3 µM
SMILES: CN(C)c1ccncc1C1CN(C(=O)[C@@H]2CC[C@@H]3C[C@H]4C[C@H]4C[C@H](NC(=O)c4cc5cc(C(F)(F)P(=O)(O)O)ccc5s4)C(=O)N32)C1 [Example 419, ((2-(((3S,6S,7aS,8aR,9aR)-3-(3-(4-(dimethylamino)pyridin-3-yl)azetidine-1-carbonyl)-5-oxodecahydro-1H-cyclopropa[d]pyrrolo[1,2-a]azocin-6-yl)carbamoyl)benzo[b]thiophen-5-yl)difluoromethyl)phosphonic acid]
